The values below are quoted from earlier work in patent US5437864A, “Method of inhibiting blood coagulation in extracorporeal circulation by inhibiting human tissue factor” (The Scripps Research Institute, priority 1992, dated 1995).

In one data set the test system is TF. The settings on record: Pitlick, J. Clin. Invest., 55:175 (1975); cited from earlier work.
For the next data set, the system named is baboon TF. The settings on record: Taylor et al., J. Clin. Invest. (1987); cited from earlier work.

Take concanavalin A: the “inhibition of TF activity” value with TF is listed as “inhibits TF activity”.

On to activated protein C, for which, in the data set with baboon TF, the “coagulopathic response and lethal effects of LD100 concentrations of E. coli in baboons” value was “prevents the coagulopathic response and lethal effects”.
